According to US20260262643A1, “HERBICIDAL BENZOXAZINES” (FMC CORPORATION, priority 2022, published 2026):

Legend:
[1] = system: oat, wild; assay: Test C preemergence; assay type: in vivo, Avena fatua; settings: for Plant response rating, Oat, Wild: Preemergence; for Oat, Wild plant response rating: preemergence
How it was run: (§1)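 Seeds in loam–sand blend received preemergence directed soil spray of test chemicals in non-phytotoxic solvent with surfactant; postemergence treatment was applied at one- to two-leaf stage (2–10 cm). After 10 days in greenhouse, injury rated visually versus untreated controls, 0 (no effect) to 100 (complete control).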

[2] = system: soybean; assay: Test C preemergence; assay type: in vivo, Glycine max; settings: for Plant response rating, Soybean: Preemergence; for Soybean plant response rating: preemergence
How it was run: as §1

[3] = system: horseweed; assay: Test C postemergence; assay type: in vivo, Erigeron canadensis; settings: 10 days
How it was run: as §1

[4] = system: pigweed, palmer; assay: Test C preemergence; assay type: in vivo, Amaranthus palmeri; settings: for Plant response rating, Pigweed, Palmer: Preemergence; for Pigweed, Palmer plant response rating: preemergence
How it was run: as §1

[5] = system: corn; assay: Test C preemergence; assay type: in vivo, Zea mays; settings: for Plant response rating, Corn: Preemergence; for Corn plant response rating: preemergence
How it was run: as §1

[6] = system: corn; assay: Test C postemergence; assay type: in vivo, Zea mays; settings: 10 days
How it was run: as §1

[7] = system: barnyardgrass; assay: Test C preemergence; assay type: in vivo, Echinochloa crusgalli; settings: for Plant response rating, Barnyardgrass: Preemergence; for Barnyardgrass plant response rating: preemergence
How it was run: as §1

[8] = system: kochia; assay: Test C postemergence; assay type: in vivo, Bassia scoparia; settings: 10 days
How it was run: as §1

[9] = system: barnyardgrass; assay: Test D flooded paddy test; assay type: in vivo, Echinochloa crus-galli; settings: 250 g ai/ha, applied to paddy water, visual rating after 13 to 14 days, scale 0 to 100 (0 no effect, 100 complete control)
How it was run: (§2)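 Post-flood water application at the 2-leaf stage; 3 cm flood depth kept constant; visual control rating 0–100 after 13–14 days greenhouse growth.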

[10] = system: wheat; assay: Test C preemergence; assay type: in vivo, Triticum aestivum; settings: for Plant response rating, Wheat: Preemergence; for Wheat plant response rating: preemergence
How it was run: as §1

[11] = system: blackgrass; assay: Test C preemergence; assay type: in vivo, Alopecurus myosuroides; settings: for Plant response rating, Blackgrass: Preemergence; for Blackgrass plant response rating: preemergence
How it was run: as §1

[12] = system: pigweed, palmer; assay: Test C postemergence; assay type: in vivo, Amaranthus palmeri; settings: 10 days
How it was run: as §1

[13] = system: kochia; assay: Test C preemergence; assay type: in vivo, Bassia scoparia; settings: for Plant response rating, Kochia: Preemergence; for Kochia plant response rating: preemergence
How it was run: as §1

[14] = system: wheat; assay: Test C postemergence; assay type: in vivo, Triticum aestivum; settings: 10 days
How it was run: as §1

[15] = system: galium; assay: Test C postemergence; assay type: in vivo, Galium aparine; settings: 10 days
How it was run: as §1

[16] = system: ragweed; assay: Test C preemergence; assay type: in vivo, Ambrosia artemisiifolia; settings: for Plant response rating, Ragweed: Preemergence; for Ragweed plant response rating: preemergence
How it was run: as §1

[17] = system: ryegrass, Italian; assay: Test C postemergence; assay type: in vivo, Lolium multiflorum; settings: 10 days
How it was run: as §1

[18] = system: ducksalad; assay: Test D flooded paddy test; assay type: in vivo, Heteranthera limosa; settings: 250 g ai/ha, applied to paddy water, visual rating after 13 to 14 days, scale 0 to 100 (0 no effect, 100 complete control)
How it was run: as §2

[19] = system: soybean; assay: Test C postemergence; assay type: in vivo, Glycine max; settings: 10 days
How it was run: as §1

[20] = system: ragweed; assay: Test C postemergence; assay type: in vivo, Ambrosia artemisiifolia; settings: 10 days
How it was run: as §1

[21] = system: green foxtail; assay: Test C preemergence; assay type: in vivo, Setaria viridis; settings: for Plant response rating, Foxtail, Green: Preemergence; for Foxtail, Green plant response rating: preemergence
How it was run: as §1

[22] = system: oat, wild; assay: Test C postemergence; assay type: in vivo, Avena fatua; settings: 10 days
How it was run: as §1

[23] = system: ryegrass, Italian; assay: Test C preemergence; assay type: in vivo, Lolium multiflorum; settings: for Plant response rating, Ryegrass, Italian: Preemergence; for Ryegrass, Italian plant response rating: preemergence
How it was run: as §1

[24] = system: barnyardgrass; assay: Test C postemergence; assay type: in vivo, Echinochloa crusgalli; settings: 10 days
How it was run: as §1

[25] = system: green foxtail; assay: Test C postemergence; assay type: in vivo, Setaria viridis; settings: 10 days
How it was run: as §1

[26] = system: sedge, umbrella; assay: Test D flooded paddy test; assay type: in vivo, Cyperus difformis; settings: 250 g ai/ha, applied to paddy water, visual rating after 13 to 14 days, scale 0 to 100 (0 no effect, 100 complete control)
How it was run: as §2

[27] = system: blackgrass; assay: Test C postemergence; assay type: in vivo, Alopecurus myosuroides; settings: 10 days
How it was run: as §1

[28] = system: rice; assay: Test D flooded paddy test; assay type: in vivo, Oryza sativa; settings: 250 g ai/ha, applied to paddy water, visual rating after 13 to 14 days, scale 0 to 100 (0 no effect, 100 complete control)
How it was run: as §2

[29] = 500 g ai/ha, visual rating after 10 days, 0 to 100 scale (0 no effect, 100 complete control)
[30] = Test C, 125 g ai/ha, 0 to 100 scale (0 no effect, 100 complete control)
[31] = 125 g ai/ha, postemergence, 0 to 100 scale, 0 no effect, 100 complete control
[32] = Postemergence, 500 g ai/ha, visual 0 to 100 scale (0 no effect, 100 complete control)
[33] = 500 g ai/ha, 0 to 100 scale (0 no effect, 100 complete control)
[34] = 500 g ai/ha, postemergence, 0 to 100 scale (0 no effect, 100 complete control)
[35] = Postemergence, 125 g ai/ha, 0 to 100 scale (0 no effect, 100 complete control)
[36] = 125 g ai/ha, 0 to 100 scale, 0 no effect, 100 complete control

COC[C@H]1CN(C(=O)c2cc(-n3cncn3)ccc2C)c2cccc(Cl)c2O1 [Compound 263]
Plant response rating, Oat, Wild [1, 29]: 70
Oat, Wild plant response rating [1, 30]: 30
Plant response rating, Soybean [2, 29]: 90
Soybean plant response rating [2, 30]: 80
Plant response rating, Horseweed [3, 31]: 0
Plant response rating, Horseweed [3, 32]: 20
Plant response rating, Pigweed, Palmer [4, 29]: 100
Pigweed, Palmer plant response rating [4, 30]: 70
Plant response rating, Corn [5, 29]: 60
Corn plant response rating [5, 30]: 20
Plant response rating, Corn [6, 31]: 30
Plant response rating, Corn [6, 32]: 90
Plant response rating, Barnyardgrass [7, 29]: 90
Barnyardgrass plant response rating [7, 30]: 70
Plant response rating, Kochia [8, 31]: 70
Plant response rating, Kochia [8, 32]: 70
Plant response rating, Barnyardgrass (Flood) [9]: 20
Plant response rating, Wheat [10, 29]: 40
Wheat plant response rating [10, 30]: 20
Plant response rating, Blackgrass [11, 29]: 90
Blackgrass plant response rating [11, 30]: 50
Plant response rating, Pigweed, Palmer [12, 31]: 40
Plant response rating, Pigweed, Palmer [12, 32]: 80
Plant response rating, Kochia [13, 29]: 70
Plant response rating, Wheat [14, 31]: 30
Plant response rating, Wheat [14, 32]: 80
Plant response rating, Galium [15, 31]: 100
Plant response rating, Galium [15, 32]: 100
Plant response rating, Ragweed [16, 29]: 30
Ragweed plant response rating [16, 30]: 0
Plant response rating, Ryegrass, Italian [17, 31]: 80
Plant response rating, Ryegrass, Italian [17, 32]: 90
Plant response rating, Ducksalad (Flood) [18]: 65
Plant response rating, Soybean [19, 31]: 100
Plant response rating, Soybean [19, 32]: 100
Plant response rating, Ragweed [20, 31]: 40
Plant response rating, Ragweed [20, 32]: 90
Plant response rating, Foxtail, Green [21, 29]: 100
Foxtail, Green plant response rating [21, 30]: 90
Plant response rating, Oat, Wild [22, 31]: 10
Plant response rating, Oat, Wild [22, 32]: 50
Plant response rating, Ryegrass, Italian [23, 29]: 90
Ryegrass, Italian plant response rating [23, 30]: 80
Plant response rating, Barnyardgrass [24, 31]: 70
Plant response rating, Barnyardgrass [24, 32]: 90
Plant response rating, Foxtail, Green [25, 31]: 80
Plant response rating, Foxtail, Green [25, 32]: 90
Plant response rating, Sedge, Umbrella (Flood) [26]: 85
Plant response rating, Blackgrass [27, 31]: 80
Plant response rating, Blackgrass [27, 32]: 90
Plant response rating, Rice (Flood) [28]: 0

Cc1cccc2c1OC(C(F)(F)F)CN2C(=O)c1cccc(-n2cnc(C(C)C)n2)c1 (single isomer, unassigned) [Compound 303]
Oat, Wild plant response rating [1, 33]: 90
Oat, Wild plant response rating [1, 30]: 50
Soybean plant response rating [2, 33]: 100
Soybean plant response rating [2, 30]: 30
Plant response rating, Horseweed [3, 34]: 20
Plant response rating, Horseweed [3, 35]: 0
Pigweed, Palmer plant response rating [4, 33]: 100
Pigweed, Palmer plant response rating [4, 30]: 100
Corn plant response rating [5, 33]: 50
Corn plant response rating [5, 30]: 0
Plant response rating, Corn [6, 34]: 80
Plant response rating, Corn [6, 35]: 20
Barnyardgrass plant response rating [7, 33]: 100
Barnyardgrass plant response rating [7, 30]: 40
Plant response rating, Kochia [8, 34]: 80
Plant response rating, Kochia [8, 35]: 70
Plant response rating, Barnyardgrass (Flood) [9]: 0
Wheat plant response rating [10, 33]: 100
Wheat plant response rating [10, 30]: 70
Blackgrass plant response rating [11, 33]: 100
Blackgrass plant response rating [11, 30]: 90
Plant response rating, Pigweed, Palmer [12, 34]: 80
Plant response rating, Pigweed, Palmer [12, 35]: 40
Kochia plant response rating [13, 33]: 100
Kochia plant response rating [13, 30]: 70
Plant response rating, Wheat [14, 34]: 50
Plant response rating, Wheat [14, 35]: 30
Plant response rating, Galium [15, 34]: 100
Plant response rating, Galium [15, 35]: 100
Ragweed plant response rating [16, 33]: 70
Ragweed plant response rating [16, 30]: 0
Plant response rating, Ryegrass, Italian [17, 34]: 90
Plant response rating, Ryegrass, Italian [17, 35]: 60
Plant response rating, Ducksalad (Flood) [18]: 80
Plant response rating, Soybean [19, 34]: 100
Plant response rating, Soybean [19, 35]: 100
Plant response rating, Ragweed [20, 34]: 60
Plant response rating, Ragweed [20, 35]: 50
Foxtail, Green plant response rating [21, 33]: 100
Foxtail, Green plant response rating [21, 30]: 100
Plant response rating, Oat, Wild [22, 34]: 70
Plant response rating, Oat, Wild [22, 35]: 50
Ryegrass, Italian plant response rating [23, 33]: 100
Ryegrass, Italian plant response rating [23, 30]: 90
Plant response rating, Barnyardgrass [24, 34]: 70
Plant response rating, Barnyardgrass [24, 35]: 20
Plant response rating, Foxtail, Green [25, 34]: 80
Plant response rating, Foxtail, Green [25, 35]: 50
Plant response rating, Sedge, Umbrella (Flood) [26]: 90
Plant response rating, Blackgrass [27, 34]: 100
Plant response rating, Blackgrass [27, 35]: 90
Plant response rating, Rice (Flood) [28]: 0

COC[C@H]1CN(C(=O)c2cc(-n3cnc(C4CCC4)n3)cc3c2OCCO3)c2cccc(Cl)c2O1 [Compound 380]
Oat, Wild plant response rating [1, 33]: 40
Plant response rating, Oat, Wild [1, 36]: 20
Soybean plant response rating [2, 33]: 90
Plant response rating, Soybean [2, 36]: 50
Plant response rating, Horseweed [3, 34]: 60
Plant response rating, Horseweed [3, 35]: 60
Pigweed, Palmer plant response rating [4, 33]: 100
Plant response rating, Pigweed, Palmer [4, 36]: 100
Corn plant response rating [5, 33]: 50
Plant response rating, Corn [5, 36]: 0
Plant response rating, Corn [6, 34]: 50
Plant response rating, Corn [6, 35]: 10
Barnyardgrass plant response rating [7, 33]: 80
Plant response rating, Barnyardgrass [7, 36]: 20
Plant response rating, Kochia [8, 34]: 100
Plant response rating, Kochia [8, 35]: 100
Plant response rating, Barnyardgrass (Flood) [9]: 55
Wheat plant response rating [10, 33]: 10
Plant response rating, Wheat [10, 36]: 0
Blackgrass plant response rating [11, 33]: 30
Plant response rating, Blackgrass [11, 36]: 0
Plant response rating, Pigweed, Palmer [12, 34]: 100
Plant response rating, Pigweed, Palmer [12, 35]: 90
Kochia plant response rating [13, 33]: 90
Plant response rating, Kochia [13, 36]: 0
Plant response rating, Wheat [14, 34]: 20
Plant response rating, Wheat [14, 35]: 10
Plant response rating, Galium [15, 34]: 100
Plant response rating, Galium [15, 35]: 100
Ragweed plant response rating [16, 33]: 90
Plant response rating, Ragweed [16, 36]: 70
Plant response rating, Ryegrass, Italian [17, 34]: 60
Plant response rating, Ryegrass, Italian [17, 35]: 40
Plant response rating, Ducksalad (Flood) [18]: 30
Plant response rating, Soybean [19, 34]: 100
Plant response rating, Soybean [19, 35]: 100
Plant response rating, Ragweed [20, 34]: 100
Plant response rating, Ragweed [20, 35]: 90
Foxtail, Green plant response rating [21, 33]: 100
Plant response rating, Foxtail, Green [21, 36]: 50
Plant response rating, Oat, Wild [22, 34]: 0
Plant response rating, Oat, Wild [22, 35]: 0
Ryegrass, Italian plant response rating [23, 33]: 80
Plant response rating, Ryegrass, Italian [23, 36]: 70
Plant response rating, Barnyardgrass [24, 34]: 50
Plant response rating, Barnyardgrass [24, 35]: 20
Plant response rating, Foxtail, Green [25, 34]: 80
Plant response rating, Foxtail, Green [25, 35]: 20
Plant response rating, Sedge, Umbrella (Flood) [26]: 40
Plant response rating, Blackgrass [27, 34]: 70
Plant response rating, Blackgrass [27, 35]: 20
Plant response rating, Rice (Flood) [28]: 10
